Measurements as given in US20240342318A1, “CONJUGATES COMPRISING COVALENT BINDERS FOR TARGETING INTRACELLULAR PROTEINS” (RayzeBio, Inc., priority 2021, published 2024).
Where two headings read alike, the source gives them in different places.

Legend:
EGFR (WT) = target: T1, EGFR (WT) (Homo sapiens, UniProt P00533); experiment: In vitro kinase binding assay (phage/DNA-tagged kinase, affinity beads, qPCR), wild-type EGFR
T1 construct: The EGFR constructs span amino acids R669 to V1011 of the EGFR protein; T7 phage display fusion (kinase-tagged T7 phage) or DNA tag for qPCR; made in house; host or cells: E. coli (BL21-derived) infected with T7 phage for most assays; remaining kinases in HEK-293
T1 sequence (P00533 669-1011): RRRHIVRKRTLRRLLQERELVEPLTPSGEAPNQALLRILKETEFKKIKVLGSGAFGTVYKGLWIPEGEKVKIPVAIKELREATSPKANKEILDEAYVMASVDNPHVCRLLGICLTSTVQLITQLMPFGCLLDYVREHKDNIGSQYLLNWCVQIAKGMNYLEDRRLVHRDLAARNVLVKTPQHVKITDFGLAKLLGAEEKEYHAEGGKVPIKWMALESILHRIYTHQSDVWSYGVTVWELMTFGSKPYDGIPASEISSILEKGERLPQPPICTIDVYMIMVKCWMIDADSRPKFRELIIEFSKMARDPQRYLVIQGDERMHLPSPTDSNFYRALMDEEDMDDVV
Description: (§1) For most assays, kinase-tagged T7 phage strains were prepared in an E. coli host derived from the BL21 strain. For the EGFR assays, wild-type EGFR, or mutant EGFR (T790M, L858R) were utilized. The EGFR constructs span amino acids R669 to V1011 of the EGFR protein. E. coli were grown to log-phase and infected with T7 phage and incubated with shaking at 32° C. until lysis. The lysates were centrifuged and filtered to remove cell debris. The remaining kinases were produced in HEK-293 cells and subsequently tagged with DNA for qPCR detection. Streptavidin-coated magnetic beads were treated with biotinylated small molecule ligands for 30 minutes at room temperature to generate affinity resins for kinase assays. The liganded beads were blocked with excess biotin and washed with blocking buffer (SeaBlock (Pierce), 1% BSA, 0.05% Tween 20, 1 mM DTT) to remove unbound ligand and to reduce non-specific binding. Binding reactions were assembled by combining kinases, liganded affinity beads, and test compounds in 1× binding buffer (20% SeaBlock, 0.17×PBS, 0.05% Tween 20, 6 mM DTT). Test compounds were prepared as 111× stocks in 100% DMSO. Kds were determined using an 11-point 3-fold compound dilution series with three DMSO control points. All compounds for Kd measurements are distributed by acoustic transfer (non-contact dispensing) in 100% DMSO. The compounds were then diluted directly into the assays such that the final concentration of DMSO was 0.9%. All reactions performed in polypropylene 384-well plate. Each was a final volume of 0.02 ml. The assay plates were incubated at room temperature with shaking for 1 hour and the affinity beads were washed with wash buffer (lx PBS, 0.05% Tween 20). The beads were then re-suspended in elution buffer (lx PBS, 0.05% Tween 20, 0.5 μM nonbiotinylated affinity ligand) and incubated at room temperature with shaking for 30 minutes. The kinase concentration in the eluates was measured by qPCR.

EGFR (L858R, T790M) = target: T2, EGFR (L858R, T790M) (Homo sapiens, UniProt P00533, L858R/T790M); experiment: In vitro kinase binding assay (phage/DNA-tagged kinase, affinity beads, qPCR), mutant EGFR; conditions: for Binding Affinity ratio of WT/DM: ratio of Kd EGFR (WT) to Kd EGFR (L858R, T790M)
T2 construct: The EGFR constructs span amino acids R669 to V1011 of the EGFR protein; T7 phage display fusion (kinase-tagged T7 phage) or DNA tag for qPCR; made in house; host or cells: E. coli (BL21-derived) infected with T7 phage for most assays; remaining kinases in HEK-293
T2 sequence (P00533 669-1011 T790M/L858R): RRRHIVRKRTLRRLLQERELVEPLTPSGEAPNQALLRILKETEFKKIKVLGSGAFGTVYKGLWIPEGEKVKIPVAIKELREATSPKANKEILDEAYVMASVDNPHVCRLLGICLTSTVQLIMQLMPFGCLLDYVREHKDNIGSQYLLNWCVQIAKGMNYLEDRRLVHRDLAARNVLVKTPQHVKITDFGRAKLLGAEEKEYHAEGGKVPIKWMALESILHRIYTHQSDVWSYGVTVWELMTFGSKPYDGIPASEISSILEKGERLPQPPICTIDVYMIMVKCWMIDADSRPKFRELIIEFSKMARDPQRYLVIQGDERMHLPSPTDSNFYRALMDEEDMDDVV
Description: as §1

[1] = wild-type EGFR construct R669 to V1011, 11-point 3-fold dilution series, 1 hour at room temperature, read-out: EGFR (WT) Kd
[2] = mutant EGFR (T790M, L858R) construct R669 to V1011, 11-point 3-fold dilution series, 1 hour at room temperature, read-out: EGFR (L858R, T790M) Kd

Structure (SMILES)	Kd (EGFR (WT); [1])	Kd (EGFR (L858R, T790M); [2])	Binding Affinity ratio of WT/DM (EGFR (L858R, T790M))	Kd (EGFR (WT))	Kd (EGFR (L858R, T790M))
C=CC(=O)N[C@@H]1CN(c2nc(Nc3cn(CCCCCNC(=O)CN4CCN(CC(=O)O)CCN(CC(=O)O)CCN(CC(=O)O)CC4)nc3OC)c3ncn(C(C)(C)C)c3n2)C[C@H]1F [Compound 004, 2-[4-[2-[5-[4-[[9-tert-butyl-2-[(3R,4R)-3-fluoro-4-(prop-2-enoylamino)pyrrolidin-1-yl]purin-6-yl]amino]-3-methoxy-pyrazol-1-yl]pentylamino]-2-oxo-ethyl]-7,10-bis(carboxymethyl)-1,4,7,10-tetrazacyclododec-1-yl]acetic acid]	0.1 to 1 µM	0.001 to 0.025 µM	B (25 < B ≤ 100)	–	–
C=CC(=O)N[C@@H]1CN(c2nc(Nc3cn(CCCCCNC(=O)CN4CCN5CCN6CCN(CC4)CC(=O)[O][Lu]([O]C(=O)C5)[O]C(=O)C6)nc3OC)c3ncn(C(C)(C)C)c3n2)C[C@H]1F [Compound 004-Lu, N-[(3R,4R)-1-[9-tert-butyl-6-[[3-methoxy-1-[5-[[2-(3,16,19-trioxo-2,17,18-trioxa-5,8,11,14-tetraza-1λ3-lutetatricyclo[9.6.3.25,14]docosan-8-yl)acetyl]amino]pentyl]pyrazol-4yl]amino]purin-2-yl]-4-fluoro-pyrrolidin-3-yl]prop-2-enamide]	–	–	B (25 < B ≤ 100)	0.002 to 0.1 µM	< 0.001 µM
C=CC(=O)N[C@@H]1CN(c2nc(Nc3cn(CCCCCNC(=O)CN4CCN(CC(=O)O)CCN(CC(=O)O)CCN(CC(=O)O)CC4)nc3CC)c3ncn(C(C)(C)C)c3n2)C[C@H]1F [Compound 005, 2-[4-[2-[5-[4-[[9-tert-butyl-2-[(3R,4R)-3-fluoro-4-(prop-2-enoylamino)pyrrolidin-1-yl]purin-6-yl]amino]-3-ethyl-pyrazol-1-yl]pentylamino]-2-oxo-ethyl]-7,10-bis(carboxymethyl)-1,4,7,10-tetrazacyclododec-1-yl]acetic acid]	1 to 2.5 µM	0.001 to 0.025 µM	C (100 < C ≤ 1000)	–	–
C=CC(=O)N[C@@H]1CN(c2nc(Nc3cn(CCCCCNC(=O)CN4CCN5CCN6CCN(CC4)CC(=O)[O][Lu]([O]C(=O)C5)[O]C(=O)C6)nc3CC)c3ncn(C(C)(C)C)c3n2)C[C@H]1F [Compound 005-Lu, N-[(3R,4R)-1-[9-tert-butyl-6-[[3-ethyl-1-[5-[[2-(3,16,19-trioxo-2,17,18-trioxa-5,8,11,14-tetraza-1λ3-lutetatricyclo[9.6.3.25,14]docosan-8-yl)acetyl]amino]pentyl]pyrazol-4-yl]amino]purin-2-yl]-4-fluoro-pyrrolidin-3-yl]prop-2-enamide]	–	–	C (100 < C ≤ 1000)	1 to 2.5 µM	0.001 to 0.025 µM
C=CC(=O)N[C@@H]1CN(c2nc(Nc3cn(CCCCCNC(=O)CN4C[C@H](CC)N(CC(=O)O)C[C@H](CC)N(CC(=O)O)C[C@H](CC)N(CC(=O)O)C[C@@H]4CC)nc3CC)c3ncn(C(C)(C)C)c3n2)C[C@H]1F [Compound 006, 2,2′,2″-((2S,5S,8S,11S)-10-(2-((5-(4-((2-((3R,4R)-3-acrylamido-4-fluoropyrrolidin-1-yl)-9-(tert-butyl)-9H-purin-6-yl)amino)-3-ethyl-1H-pyrazol-1-yl)pentyl)amino)-2-oxoethyl)-2,5,8,11-tetraethyl-1,4,7,10-tetraazacyclododecane-1,4,7-triyl)triacetic acid]	1 to 2.5 µM	0.001 to 0.025 µM	B (25 < B ≤ 100)	–	–
C=CC(=O)N1C[C@H](COc2nc(Nc3cnn(CCCCCNC(=O)CN4CCN(CC(=O)O)CCN(CC(=O)O)CCN(CC(=O)O)CC4)c3)nc3[nH]cc(Cl)c23)[C@@H](OC)C1 [Compound 007, 2,2′,2″-(10-(2-((5-(4-((4-(((3R,4R)-1-acryloyl-4-methoxypyrrolidin-3yl)methoxy)-5-chloro-7H-pyrrolo[2,3-d]pyrimidin-2-yl)amino)-1H-pyrazol-1-yl)pentyl)amino)-2-oxoethyl)-1,4,7,10-tetraazacyclododecane-1,4,7-triyl)triacetic acid]	0.1 to 1 µM	0.001 to 0.025 µM	C (100 < C ≤ 1000)	–	–
C=CC(=O)N1C[C@H](COc2nc(Nc3cnn(CCCCCNC(=O)CN4CCN5CCN6CCN(CC4)CC(=O)[O][Lu]([O]C(=O)C5)[O]C(=O)C6)c3)nc3[nH]cc(Cl)c23)[C@@H](OC)C1 [Compound 007-Lu, N-[5-[4-[[5-chloro-4-[[(3R,4R)-4-methoxy-1-prop-2-enoyl-pyrrolidin-3-yl]methoxy]-7H-pyrrolo [2,3-d]pyrimidin-2-yl]amino]pyrazol-1-yl]pentyl]-2-(3,16,19-trioxo-2,17,18-trioxa-5,8,11,14-tetraza-1λ3-lutetatricyclo[9.6.3.25,14]docosan-8-yl)acetamide]	–	–	C (100 < C ≤ 1000)	0.1 to 1 µM	< 0.001 µM
